Data on 25 compounds can be found in patent publication US7026339B2, “Inhibitors of HCV NS5B polymerase” (priority 2003, dated 2006).

The experiment has as its system HuH-7 replicon cells 5–15 and 9–13 (HCV replication). The experiment can be described thus: Inhibition of viral replication in HuH-7 replicon cells (HCV RNA / GAPDH RNA by multiplex RT-PCR). It counts as cell-based. The note with it: Hepatitis C virus, 72 h; inhibiting 50% of replication; HuH-7 replicon cells, 3 days; read-out: IC50. The protocol:
Compounds were evaluated for inhibition of viral replication according to published procedures (Bartenschlager, R., et. al., Science, 1999, 285, 110) with modifications as follows.
HuH-7 replicon cells 5–15 and 9–13 were cultured in Dulbecco's minimal essential medium (DMEM) containing high glucose and supplemented with 10% fetal bovine serum (FBS), L-glutamine (2 mM), non-essential amino acids (1×), Penicillin (100 IU/mL)/Streptomycin (100 μg/mL) and G418 (Geneticin, 750 μg/mL). Unless otherwise specified, all media components were obtained from Invitrogen. Replicon cell line stocks were maintained as sub-confluent monolayers by passaging every Monday (1:6 split) and Thursday (1:10 split) and incubated at 37° C. with 5% CO2. Tissue culture plates (96-well white clear bottom plates, Corning #3610) were seeded at 7×10^3 cells/well and incubated for 24 hours prior to addition of the compounds.
Compounds in dry powder form were diluted in DMSO (30 mM stock). Serial dilutions of each Compound in DMSO (10 mM–0.1 mM) were performed in a 96-well polypropylene plate using a microtiter format. Culture media (200 μl) was added to the corresponding wells of a sterile 96-well round bottom plate. Diluted compound (2 μl) was added to the corresponding wells of the medial plate (final compound concentrations: 100 μM–1 μM). Culture media was removed from the corresponding wells of the 96-well plate containing the replicon cells and 150 μl diluted compound added. Media containing 1% DMSO and a serially diluted IFN were included on each plate. The cultures were incubated at 37° C. with 5% CO2 for 3 days. Cultures were observed visually for cytotoxicity or compound precipitation prior to RNA extraction described below.
Total cellular RNA was extracted by spin column technology (RNeasy 96, Qiagen) using the vacuum methodology according to the manufacturer's protocol. In brief, culture media was removed and 100 μl RLT lysis buffer containing 0.14M β-mercaptoethanol (β-ME) was added to each well. The plate was kept flat on the laboratory bench and shaken vigorously to lyse the cells. An equal volume of 70% ETOH was mixed with the lysate and added to the corresponding columns of the RNeasy 96-well plate. Vacuum was applied to draw the lysate through the filters. After ventilating the plate, buffer RW1 (1 mL) was drawn through each column. The waste tray was emptied and the filters washed twice with buffer RPE (1 mL/wash). After ventilating the tray, the RNeasy plate was removed and the bottom of the plate struck several times on a stack of paper towels to remove excess wash buffer. The waste tray was removed from the vacuum apparatus and the RNeasy 96-well plate dried by applying vacuum for 10 minutes. Total cellular RNA was eluted from the columns with two washes of 60 μl RNase-free water.
Relative quantitative multiplex RT-PCR was performed using TaqMan (TM) EZ RT Core Reagent kit (Perkin Elmer) according to the manufacturer's protocol (PE Applied Biosystems User Bulletin #2). Primer 061 (NT 61–82) and 139 (NT 139–158) amplifying a short region in the 5′ untranslated region of the HCV genome were utilized at 300 nM final concentrations. Probe #3 (NT 97–119) labeled with FAM reporter dye was utilized at 200 nM final concentration. Pre-developed human GAPDH primers and probe labeled with VIC reporter dye were obtained from PE Applied Biosystems (# 4310884E) and used according to the manufacturer's protocol. TM RT-PCR master mix was prepared containing the above primers/probe for both target RNA. Total cellular RNA (2 μl) was added to the reaction tubes of a 96-well optical plate that corresponded to the wells of the replicon culture plate. The final volume of each reaction was 50 μl. A standard curve was prepared from ten-fold serial dilutions of total cellular RNA extracated from 10^6 replicon cells and eluted in 30 μl RNase-free water. […]
In general terms: In antiviral work, replicon cells carry a viral genome segment that copies itself.
What is called IC50 is the midpoint of a concentration-inhibition curve. For `CN(c1ccccc1/C=N/NC(=O)Cc1ccccc1)S(=O)(=O)c1ccc(C(F)(F)F)cc1` [Compound 243, N-methyl-N-(2-{(E)-[(phenylacetyl)hydrazono]methyl}phenyl)-4-(trifluoromethyl)benzenesulfonamide], the IC50 is less than 5 µM.

Regarding `O=C(Cc1ccccc1)N/N=C/c1ccccc1OS(=O)(=O)c1cccc2ccccc12` [Compound 136, 2-{(E)-[2-(2-phenylacetyl)hydrazono]methyl}phenylnaphthalene-1-sulfonate], the IC50 was greater than 50 µM.

With `C/C(=N\NC(=O)Cc1ccc(Cl)c(Cl)c1)c1ccccc1OS(=O)(=O)c1ccc(C(F)(F)F)cc1` [Compound 223, 2-{(1E)-N-[(3,4-dichlorophenyl)acetyl]ethanehydrazonoyl}-phenyl 4-(trifluoromethyl)benzenesulfonate], the IC50 was greater than 50 µM.

`COc1cccc(CC(=O)N/N=C/c2cccc(OC)c2OS(=O)(=O)c2ccc(C)cc2)c1` [Compound 160, 2-methoxy-6-((E)-{[(3-methoxyphenyl)acetyl]hydrazono}methyl)-phenyl 4-methylbenzenesulfonate]: the 50% inhibitory concentration (IC50) was 5 to 50 µM.

Take `O=C(Cc1ccccc1)N/N=C/c1ccccc1OS(=O)(=O)c1ccc(-c2ccccc2)cc1` [Compound 144, 2-{(E)-[2-(2-phenylacetyl)hydrazono]methyl}phenyl1,1′-biphenyl-4-sulfonate]: the IC50 is greater than 50 µM.

As to `COc1cccc(CC(=O)N/N=C/c2ccncc2OS(=O)(=O)c2ccc(C)cc2)c1` [Compound 229, 4-((E)-{2-[2-(3-methoxyphenyl)acetyl]hydrazono}methyl)-pyridin-3-yl 4-methylbenzenesulfonate], the IC50 was less than 5 µM.

As for `O=C(Cc1ccccc1)N/N=C/c1ccccc1OS(=O)(=O)c1cccc(C(F)(F)F)c1` [Compound 122, 2-{(E)-[2-(2-phenylacetyl)hydrazono]methyl}phenyl 3-(trifluoromethyl)benzenesulfonate], the IC50 fell in the range of 5 to 50 µM.

Take `O=C(Cc1cccs1)N/N=C/c1ccccc1OS(=O)(=O)c1ccc(C(F)(F)F)cc1` [Compound 4, 2-{(E)-[2-(2-thien-2-ylacetyl)-hydrazono]methyl}phenyl 4-(trifluoromethyl)benzenesulfonate]: the IC50 is less than 5 µM.

`O=C(Cc1ccccc1F)N/N=C/c1ccccc1OS(=O)(=O)c1ccc(C(F)(F)F)cc1` [Compound 41, 2-((E)-{2-[2-(2-fluorophenyl)acetyl]hydrazono}methyl)-phenyl 4-(trifluoromethyl)benzenesulfonate]: the IC50 is less than 5 µM.

With `O=C(Cc1ccccc1)N/N=C/c1ccccc1OS(=O)(=O)c1cccs1` [Compound 109, 2-{(E)-[2-(2-phenylacetyl)hydrazono]methyl}phenylthiophene-2-sulfonate], the IC50 is greater than 50 µM.

Turning to `O=C(Cc1ccccc1)N/N=C/c1ccccc1OS(=O)(=O)c1ccc(F)c(F)c1` [Compound 118, 2-{(E)-[2-(2-phenylacetyl)hydrazono]methyl}phenyl3,4-difluorobenzenesulfonate], the IC50 is 5 to 50 µM.

As to `COc1ccccc1C(=O)N/N=C/c1ccccc1OS(=O)(=O)c1ccc(C(F)(F)F)cc1` [Compound 87, 2-{(E)-[2-(2-methoxybenzoyl)hydrazono]methyl}phenyl4-(trifluoromethyl)benzenesulfonate], the IC50 was greater than 50 µM.

As to `COc1cccc(CC(=O)N/N=C/c2ccccc2OS(=O)(=O)c2ccc(-c3cc(C(F)(F)F)n(C)n3)s2)c1` [Compound 226, 2-((E)-{2-[2-(3-methoxyphenyl)acetyl]hydrazono}methyl)-phenyl 5-[1-methyl-5-(trifluoromethyl)-1H-pyrazol-3-yl]thiophene-2-sulfonate], the IC50 is less than 5 µM.

On to `COc1cccc(CC(=O)N/N=C(\C)c2ccc(F)cc2OS(=O)(=O)c2ccc(C(F)(F)F)cc2)c1` [Compound 222, 5-fluoro-2-{(1E)-N-[(3-methoxyphenyl)acetyl]ethanehydrazonoyl}-phenyl 4-(trifluoromethyl)benzenesulfonate], for which the IC50 was greater than 50 µM.

`CCOc1ccccc1C(=O)N/N=C/c1ccccc1OS(=O)(=O)c1ccc(C(F)(F)F)cc1` [Compound 85, 2-{(E)-[2-(2-ethoxybenzoyl)hydrazono]methyl}phenyl4-(trifluoromethyl)benzenesulfonate]: the IC50 was greater than 50 µM.

Take `O=C(N/N=C/c1ccccc1OS(=O)(=O)c1ccc(C(F)(F)F)cc1)c1cnccc1C(F)(F)F` [Compound 89, 2-[(E)-(2-{[4-(trifluoromethyl)pyridin-3-yl]carbonyl}hydrazono)methyl]phenyl 4-(trifluoromethyl)benzenesulfonate]: the IC50 lay within 5 to 50 µM.

In the case of `O=C(NCc1ccccn1)Nc1ccccc1OS(=O)(=O)c1ccc(C(F)(F)F)cc1` [Compound 254, 2-({[(pyridin-2-ylmethyl)amino]carbonyl}amino)phenyl 4-(trifluoromethyl)benzenesulfonate], the IC50 is greater than 50 µM.

With `O=C(Cc1ccc(F)c(C(F)(F)F)c1)N/N=C/c1ccccc1OS(=O)(=O)c1ccc(C(F)(F)F)cc1` [Compound 13, 2-[(E)-(2-{2-[4-fluoro-3-(trifluoromethyl)phenyl]acetyl}hydrazono)-methyl]phenyl 4-(trifluoromethyl)benzenesulfonate], the IC50 is less than 5 µM.

In the case of `O=C(Cc1cccc(Cl)c1)N/N=C/c1ccc(F)cc1OS(=O)(=O)c1ccc(C(F)(F)F)cc1` [Compound 211, 2-((E)-{[(3-chlorophenyl)acetyl]hydrazono}methyl)-5-fluorophenyl 4-(trifluoromethyl)benzenesulfonate], the IC50 fell in the range of 5 to 50 µM.

On to `O=C(Cc1cc(F)c(F)c(F)c1)N/N=C/c1ccccc1OS(=O)(=O)c1ccc(C(F)(F)F)cc1` [Compound 18, 2-((E)-{2-[2-(3,4,5-trifluorophenyl)acetyl]hydrazono}methyl)-phenyl 4-(trifluoromethyl)benzenesulfonate], for which the IC50 is less than 5 µM.

For the compound `O=C(CSc1ccccc1)N/N=C/c1ccccc1OS(=O)(=O)c1ccc(C(F)(F)F)cc1` [Compound 59, 2-((E)-{2-[2-(phenylthio)acetyl]hydrazono}methyl)-phenyl 4-(trifluoromethyl)benzenesulfonate], the IC50 is less than 5 µM.

On to `COc1cccc(CC(=O)N/N=C/c2cc(Cl)ccc2OS(=O)(=O)c2ccc(C)cc2)c1` [Compound 155, 4-chloro-2-((E)-{[(3-methoxyphenyl)acetyl]hydrazono}methyl)-phenyl 4-methylbenzenesulfonate], for which the IC50 was less than 5 µM.

With `O=C(N/N=C/c1ccccc1OS(=O)(=O)c1ccc(C(F)(F)F)cc1)c1cccc2ccccc12` [Compound 71, 2-{(E)-[2-(1-naphthoyl)hydrazono]methyl}phenyl 4-(trifluoromethyl)benzenesulfonate], the IC50 was less than 5 µM.

Take `O=C(Cc1cccc(Cl)c1)N/N=C/c1ccncc1OS(=O)(=O)c1ccc(C(F)(F)F)cc1` [Compound 227, 4-((E)-{2-[2-(3-chlorophenyl)acetyl]hydrazono}methyl)-pyridin-3-yl 4-(trifluoromethyl)benzenesulfonate]: the IC50 is less than 5 µM.

As to `O=C(Cc1ccc2c(c1)OCO2)N/N=C/c1ccccc1OS(=O)(=O)c1ccc(C(F)(F)F)cc1` [Compound 43, 2-((E)-{2-[2-(1,3-benzodioxol-5-yl)acetyl]hydrazono}methyl)phenyl 4-(trifluoromethyl)benzenesulfonate], the IC50 is less than 5 µM.
